Assay results from US5250542A, “Peripherally selective piperidine carboxylate opioid antagonists” (Eli Lilly and Company, priority 1992, dated 1993).
Counter-ions that a name gives are not always drawn. Like-named read-outs stand apart in the source and are kept apart here.

How the values were obtained:
opioid receptor = target: T1, opioid receptor (Mus musculus, UniProt P42866); experiment: mouse writhing analgesis test: block of morphine-induced analgesia; type: in vivo, CF-1 male mice; parameters: unit not given here; conditions: dose of antagonist that reduced the inhibition of writhing produced by 1.25 mg/kg morphine sulfate to 50%; subcutaneous, 20 min before acetic acid
T1 construct: Five CF-1 male mice (Charles River, Portage, Mich.); from tissue; host or cells: living CF-1 male mice (in vivo test; endogenous receptor)
Outline: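 Male CF-1 mice (~20 g, fasted overnight, n=5) dosed subcutaneously 20 min before i.p. 0.6% acetic acid; writhes counted for 10 min starting 5 min post-injection. Antagonism measured as blockade of morphine-induced inhibition of writhing, percent versus vehicle controls; ED50 defined as 50% writhing inhibition.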

[1] = target: T2, peripheral opioid receptors (Mus musculus, UniProt P42866); experiment: precipitated diarrhea in morphine-maintained mice (peripheral opioid activity) and comparison with the writhing test; type: in vivo; conditions: for Ratio (AD50 mouse writhing test / ED50 mouse diarrhea test): higher ratio = greater relative antagonism of peripheral opioid receptors; for ED50: mouse, 0.5 h, morphine-maintained mice, antagonist subcutaneous or oral, 30 min observation
T2 construct: Mice maintained (6 mice/cage) on 0.01M saccharin water with 1 g/1 morphine sulfate; from tissue; host or cells: living morphine-maintained mice (in vivo test; endogenous receptor)
Outline: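 Morphine-dependent mice (1 g/l morphine sulfate in drinking water ≥10 days, withdrawn 45 min before dosing) received antagonist subcutaneously or orally, 5 mice/dose. Diarrhea (and jumping) were scored over 30 min and doses lowered to find the diarrhea threshold. Peripheral selectivity was taken as writhing AD50 divided by diarrhea ED50.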

mu receptor = target: T3, mu receptor (Rattus norvegicus, UniProt P33535); experiment: opioid receptor binding assay, [3H] NAL (tritiated naloxone), mu receptor; parameters: species or system rat (Male Sprague Dawley), brain minus cerebellum
T3 construct: rat whole brain minus cerebellum for mu was homogenized; from tissue; host or cells: brain of male Sprague Dawley rats, whole brain minus cerebellum, homogenate fraction
Outline: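 Displacement of [3H]naloxone was measured on rat whole brain minus cerebellum membranes, preincubated 20 min and incubated 20 min at 37° C, with filtration separating bound ligand. Ki was derived from IC50 and ligand KD. Percent displacement was also recorded at 10 nM and 100 nM test compound.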

[2] = 20 min, read-out: % displacement at 10 nM, 10 nM test compound, [3H] naloxone 0.5 nM
[3] = 20 min, read-out: % displacement at 100 nM, 100 nM test compound, [3H] naloxone 0.5 nM
[4] = 20 min, read-out: % displacement at 100 nM
[5] = 20 min, 10 nM test compound, [3H] naloxone 0.5 nM, read-out: % displacement at 10 nM
[6] = 20 min, 100 nM test compound, [3H] naloxone 0.5 nM, read-out: % displacement at 100 nM
[7] = [3H] naloxone 0.5 nM, pH 7.4, 37° C., 20 min

T3 sequence (P33535 whole entry): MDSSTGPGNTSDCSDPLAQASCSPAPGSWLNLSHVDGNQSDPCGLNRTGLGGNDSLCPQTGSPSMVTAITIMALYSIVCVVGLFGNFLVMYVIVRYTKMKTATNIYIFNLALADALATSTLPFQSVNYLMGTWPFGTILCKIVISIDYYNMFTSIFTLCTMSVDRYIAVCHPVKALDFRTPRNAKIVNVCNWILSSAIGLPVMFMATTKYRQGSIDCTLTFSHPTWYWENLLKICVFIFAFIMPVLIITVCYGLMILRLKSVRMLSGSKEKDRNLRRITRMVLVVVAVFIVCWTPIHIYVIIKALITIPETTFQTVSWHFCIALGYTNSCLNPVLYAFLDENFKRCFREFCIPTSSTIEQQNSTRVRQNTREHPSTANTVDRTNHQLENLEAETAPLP
T2 sequence (P42866 whole entry): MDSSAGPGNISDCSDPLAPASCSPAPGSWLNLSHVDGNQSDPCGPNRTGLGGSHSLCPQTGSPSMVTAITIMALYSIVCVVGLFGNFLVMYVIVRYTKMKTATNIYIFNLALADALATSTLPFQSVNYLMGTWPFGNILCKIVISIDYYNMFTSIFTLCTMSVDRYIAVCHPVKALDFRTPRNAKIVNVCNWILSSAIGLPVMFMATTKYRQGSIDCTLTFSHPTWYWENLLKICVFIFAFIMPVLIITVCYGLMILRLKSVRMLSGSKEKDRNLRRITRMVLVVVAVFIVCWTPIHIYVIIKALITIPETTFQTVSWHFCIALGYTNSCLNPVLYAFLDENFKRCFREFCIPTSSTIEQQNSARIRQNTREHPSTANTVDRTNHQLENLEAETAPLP
T1 sequence (P42866 whole entry): as above

CCNC(=O)CCNC(=O)C(Cc1ccccc1)CN1CC[C@@](C)(c2cccc(O)c2)[C@@H](C)C1 (some centres unmarked) [Example 60, N-(ethyl)-3-[[3-[4-(3-hydroxyphenyl)-3,4-dimethyl-1-piperidinyl]-2-(phenylmethyl)-1-oxopropyl]amino]propanamide monohydrochloride]
AD50 (opioid receptor): 11.2 | Ratio (AD50 mouse writhing test / ED50 mouse diarrhea test) [1]: 112 | ED50 [1]: 0.1 mg/kg | Ki (mu receptor): 1.89 nM | inhibition at 0.01 µM (mu receptor; [2]): 100% | inhibition at 0.1 µM (mu receptor; [3]): 100%

CCNC(=O)CCNC(=O)C(CC1CCCCC1)CN1CC[C@@](C)(c2cccc(O)c2)[C@@H](C)C1 (some centres unmarked) [Example 37, monohydrochloride]
AD50 (opioid receptor): 3.9 | Ratio (AD50 mouse writhing test / ED50 mouse diarrhea test) [1]: 43 | ED50 [1]: 0.09 mg/kg | Ki (mu receptor): 1.09 nM | inhibition at 0.01 µM (mu receptor; [2]): 93% | inhibition at 0.1 µM (mu receptor; [4]): 97%

CCNC(=O)CNC(=O)C(Cc1ccccc1)CN1CC[C@@](C)(c2cccc(OC)c2)[C@@H](C)C1 (single isomer, unassigned) [Example 83]
AD50 (opioid receptor): 0.71 | Ratio (AD50 mouse writhing test / ED50 mouse diarrhea test) [1]: 2 | ED50 [1]: 0.04 mg/kg | inhibition at 0.01 µM (mu receptor; [5]): 52% | inhibition at 0.1 µM (mu receptor; [6]): 83%

CCOC(=O)C(CC1CCCCC1)CN1CC[C@@](C)(c2cccc(O)c2)[C@@H](C)C1 (relative stereo) [Example 5A, 3-(3,4-dimethyl-4-(3-hydroxyphenyl)-1-piperidinyl]-2-(cyclohexylmethyl)propanoic acid ethyl ester hydrochloride]
AD50 (opioid receptor): 1.2 | Ratio (AD50 mouse writhing test / ED50 mouse diarrhea test) [1]: 20 | ED50 [1]: 0.06 mg/kg | Ki (mu receptor): 13.8 nM | inhibition at 0.01 µM (mu receptor; [2]): 61% | inhibition at 0.1 µM (mu receptor; [3]): 93%

CCNC(=O)CNC(=O)CNC(=O)C(Cc1ccccc1)CN1CC[C@@](C)(c2cccc(O)c2)[C@@H](C)C1 (relative stereo) [Example 77]
AD50 (opioid receptor): > 40 | Ratio (AD50 mouse writhing test / ED50 mouse diarrhea test) [1]: > 31 | ED50 [1]: 1.31 mg/kg | Ki (mu receptor): 1.35 nM | inhibition at 0.01 µM (mu receptor; [2]): 88% | inhibition at 0.1 µM (mu receptor; [3]): 95%

C[C@H]1CN(CC(Cc2ccccc2)C(=O)NCC(=O)NCC(=O)NCc2ccccc2)CC[C@@]1(C)c1cccc(O)c1 (relative stereo) [Example 73]
AD50 (opioid receptor): 20 | Ratio (AD50 mouse writhing test / ED50 mouse diarrhea test) [1]: 11 | ED50 [1]: 1.73 mg/kg | Ki (mu receptor): 1.8 nM | inhibition at 0.01 µM (mu receptor; [2]): 84% | inhibition at 0.1 µM (mu receptor; [3]): 90%

CNC(=O)CCCNC(=O)C(Cc1ccccc1)CN1CC[C@@](C)(c2cccc(O)c2)[C@@H](C)C1 (some centres unmarked) [Example 62, N-(methyl)-4-[[3-]4-(3-hydroxyphenyl)-3,4-dimethyl-1-piperidinyl]-2-(phenylmethyl)-1-oxopropyl]amino]butanamide monohydrochloride monohydrate]
AD50 (opioid receptor): 18.3 | Ratio (AD50 mouse writhing test / ED50 mouse diarrhea test) [1]: 122 | ED50 [1]: 0.15 mg/kg | Ki (mu receptor): 1.18 nM | inhibition at 0.01 µM (mu receptor; [2]): 89% | inhibition at 0.1 µM (mu receptor; [4]): 98%

C[C@H]1CN(CC(Cc2ccccc2)C(=O)O)CC[C@@]1(C)c1cccc(O)c1 (relative stereo) [Example 4B, 4-(3-hydroxyphenyl)-3,4-dimethyl-a-(phenylmethyl)-1-piperidinepropanoic acid monohydrate]
AD50 (opioid receptor): 8.90 | Ratio (AD50 mouse writhing test / ED50 mouse diarrhea test) [1]: 809 | ED50 [1]: 0.011 mg/kg | Ki (mu receptor): 2.62 nM | inhibition at 0.01 µM (mu receptor; 20 min, read-out: % displacement at 10 nM): 83% | inhibition at 0.1 µM (mu receptor; [4]): 97%

C[C@H]1CN(CCC(C(=O)O)c2ccccc2)CC[C@@]1(C)c1cccc(O)c1 (relative stereo) [Example 8B, trans-4-[(3-Hydroxyphenyl)-3,4-dimethyl-1-piperidine]-2-phenyl butanoic acid hydrochloride]
AD50 (opioid receptor): 0.64 | Ratio (AD50 mouse writhing test / ED50 mouse diarrhea test) [1]: 53 | ED50 [1]: 0.012 mg/kg | inhibition at 0.01 µM (mu receptor; [2]): 100% | inhibition at 0.1 µM (mu receptor; [3]): 100% | Ki (mu receptor; [7]): 0.27 nM

CCNC(=O)CCCNC(=O)C(Cc1ccccc1)CN1CC[C@@](C)(c2cccc(O)c2)[C@@H](C)C1 (some centres unmarked) [Example 64, N-(ethyl)-4-[[3-4-(3-hydroxyphenyl)-3,4-dimethyl-1-piperidinyl]-2-(phenylmethyl)-1-oxopropyl]amino]butanamide monohydrochloride]
AD50 (opioid receptor): > 40 | Ratio (AD50 mouse writhing test / ED50 mouse diarrhea test) [1]: > 45 | ED50 [1]: 0.9 mg/kg | Ki (mu receptor): 1.23 nM | inhibition at 0.01 µM (mu receptor; [2]): 94% | inhibition at 0.1 µM (mu receptor; [3]): 100%

C[C@H]1CN(CCC(C(=O)NCCC(=O)O)C2CCCCC2)CC[C@@]1(C)c1cccc(O)c1 (relative stereo) [Example 26, 3-[4-[3,4-dimethyl-4-(-3-hydroxyphenyl)-1-piperidinyl]-2-cyclohexyl-1-oxobutylamino]-propanoic acid monohydrate]
AD50 (opioid receptor): 7.5 | Ratio (AD50 mouse writhing test / ED50 mouse diarrhea test) [1]: 250 | ED50 [1]: 0.03 mg/kg | Ki (mu receptor): 1.17 nM | inhibition at 0.01 µM (mu receptor; [2]): 76% | inhibition at 0.1 µM (mu receptor; [3]): 91%

CC(C)OC(=O)CNC(=O)C(Cc1ccccc1)CN1CC[C@@](C)(c2cccc(O)c2)[C@@H](C)C1 (some centres unmarked) [Example 51, 2-[[2-(phenylmethyl)-3-[4-(3-hydroxyphenyl)-3,4-dimethyl-1-piperidinyl]-1-oxopropyl]-amino]ethanoic acid 2-propyl ester monohydrochloride]
AD50 (opioid receptor): 3.8 | Ratio (AD50 mouse writhing test / ED50 mouse diarrhea test) [1]: 25 | ED50 [1]: 0.15 mg/kg | Ki (mu receptor): 5.43 nM | inhibition at 0.01 µM (mu receptor; [2]): 85% | inhibition at 0.1 µM (mu receptor; [3]): 97%

C[C@H]1CN(CC(Cc2ccccc2)C(=O)NCC(=O)NCC2CCCCC2)CC[C@@]1(C)c1cccc(O)c1 (relative stereo) [Example 91]
AD50 (opioid receptor): 4.0 | Ratio (AD50 mouse writhing test / ED50 mouse diarrhea test) [1]: 8 | ED50 [1]: 0.5 mg/kg | inhibition at 0.01 µM (mu receptor; [5]): 69% | inhibition at 0.1 µM (mu receptor; [4]): 94%

C[C@H]1CN(CC(Cc2ccccc2)C(=O)NCC(=O)OCC(=O)NCc2ccccc2)CC[C@@]1(C)c1cccc(O)c1 (relative stereo) [Example 93]
AD50 (opioid receptor): 29.0 | Ratio (AD50 mouse writhing test / ED50 mouse diarrhea test) [1]: 3625 | ED50 [1]: 0.008 mg/kg | inhibition at 0.01 µM (mu receptor; [5]): 81% | inhibition at 0.1 µM (mu receptor; [6]): 95%

C[C@H]1CN(CC(Cc2ccccc2)C(=O)NCC(=O)OCC(N)=O)CC[C@@]1(C)c1cccc(O)c1 (relative stereo) [Example 87]
AD50 (opioid receptor): 19 | Ratio (AD50 mouse writhing test / ED50 mouse diarrhea test) [1]: 27 | ED50 [1]: 0.71 mg/kg | inhibition at 0.01 µM (mu receptor; [5]): 94% | inhibition at 0.1 µM (mu receptor; [6]): 99%

CCc1noc(CNC(=O)C(Cc2ccccc2)CN2CC[C@@](C)(c3cccc(O)c3)[C@@H](C)C2)n1 (relative stereo) [Example 71, 3-[4-(3-hydroxyphenyl)-3,4-dimethyl1-piperidinyl]-2-(phenylmethyl)-N-[(3-ethyl-1,2,4-oxadiazol-5-yl)methyl]propanamide]
AD50 (opioid receptor): 2.1 | Ratio (AD50 mouse writhing test / ED50 mouse diarrhea test) [1]: 11 | ED50 [1]: 0.19 mg/kg | Ki (mu receptor): 0.71 nM | inhibition at 0.01 µM (mu receptor; [2]): 81% | inhibition at 0.1 µM (mu receptor; [4]): 94%

CC(C)COC(=O)CNC(=O)C(Cc1ccccc1)CN1CC[C@@](C)(c2cccc(O)c2)[C@@H](C)C1 (some centres unmarked) [Example 54, 2-[2-(phenylmethyl)-1-oxo-3-4-(3-hydroxyphenyl)-3,4-dimethyl-1-piperidinyl]propyl]amino]-ethanoic acid 2-methylpropyl ester monohydrochloride]
AD50 (opioid receptor): 23 | Ratio (AD50 mouse writhing test / ED50 mouse diarrhea test) [1]: 1150 | ED50 [1]: 0.02 mg/kg | inhibition at 0.01 µM (mu receptor; [2]): 78% | inhibition at 0.1 µM (mu receptor; [4]): 98% | Ki (mu receptor; [7]): 2.27 nM

C[C@H]1CN(CCC(C(=O)NCCC(=O)OCc2ccccc2)C2CCCCC2)CC[C@@]1(C)c1cccc(O)c1 (relative stereo) [Example 25, 3-[[2-cyclohexyl-4-[4-(3-hydroxyphenyl)-3,4-dimethyl-1-piperidinyl]-1-oxobutyl]amino]propanoic acid phenylmethyl ester hydrochloride monohydrate]
AD50 (opioid receptor): 11.5 | Ratio (AD50 mouse writhing test / ED50 mouse diarrhea test) [1]: 40 | ED50 [1]: 0.29 mg/kg | Ki (mu receptor): 0.22 nM | inhibition at 0.01 µM (mu receptor; [2]): 100% | inhibition at 0.1 µM (mu receptor; [3]): 100%
